In patent US10780090B2, “Heteroaryl compounds useful as inhibitors of SUMO activating enzyme” (Millennium Pharmaceuticals, Inc., priority 2014, dated 2020):
Where two headings read alike, the source gives them in different places.

Biological target: recombinant human SAE enzyme (Homo sapiens (Human), UniProt Q9UBT2)
Assay: SAE HTRF enzyme assay
Assay type: biochemical
Conditions: for inhibition at 0.111 µM: read-out: Percent Inhibition
Method in brief: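 This HTRF format monitors Sumo-Flag–Ubc9-GST thioester formation catalysed by 0.11 nM human SAE with 0.5 μM ATP over 105 min at 24° C. Inhibition is expressed at a single concentration or as IC50.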

[1] = SAE inhibition at compound concentration 0.111 μM
[2] = SAE inhibition, class symbols, legend in nM

Sequence of recombinant human SAE enzyme (Q9UBT2 whole entry): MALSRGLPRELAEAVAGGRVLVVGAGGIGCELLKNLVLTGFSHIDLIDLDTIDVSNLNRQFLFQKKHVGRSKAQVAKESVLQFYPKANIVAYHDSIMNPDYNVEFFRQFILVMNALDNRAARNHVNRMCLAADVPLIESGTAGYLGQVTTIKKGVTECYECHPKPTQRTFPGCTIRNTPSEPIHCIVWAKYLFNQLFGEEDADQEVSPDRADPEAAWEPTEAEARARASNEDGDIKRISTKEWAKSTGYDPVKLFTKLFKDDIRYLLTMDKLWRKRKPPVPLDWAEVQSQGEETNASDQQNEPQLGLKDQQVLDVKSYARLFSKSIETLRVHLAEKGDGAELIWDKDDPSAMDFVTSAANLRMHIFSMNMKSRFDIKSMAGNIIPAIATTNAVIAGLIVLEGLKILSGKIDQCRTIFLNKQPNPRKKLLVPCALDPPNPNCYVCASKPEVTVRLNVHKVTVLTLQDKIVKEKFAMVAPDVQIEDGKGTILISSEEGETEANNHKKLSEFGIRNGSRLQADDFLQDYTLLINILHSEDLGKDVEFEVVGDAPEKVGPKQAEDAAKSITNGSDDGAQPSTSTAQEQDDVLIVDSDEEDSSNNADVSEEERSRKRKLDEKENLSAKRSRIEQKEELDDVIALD
Sequence of recombinant human SAE enzyme (Q9UBE0 whole entry partner): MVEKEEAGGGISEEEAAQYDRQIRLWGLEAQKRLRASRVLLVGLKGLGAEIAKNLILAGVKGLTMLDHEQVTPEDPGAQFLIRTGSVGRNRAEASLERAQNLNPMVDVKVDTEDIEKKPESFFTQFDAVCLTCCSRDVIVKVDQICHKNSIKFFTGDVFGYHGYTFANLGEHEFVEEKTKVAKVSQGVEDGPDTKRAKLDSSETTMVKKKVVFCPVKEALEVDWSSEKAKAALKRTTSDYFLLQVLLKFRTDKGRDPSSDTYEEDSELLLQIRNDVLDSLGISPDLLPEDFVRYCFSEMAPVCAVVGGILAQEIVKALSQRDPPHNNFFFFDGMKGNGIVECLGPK

Row | SMILES | inhibition at 0.111 µM (Concentration 0.111 μM) | IC50 (class symbols A/B/C) | Percent Inhibition (Concentration 0.111 μM) | other results
1 | N#Cc1sc(C(=O)c2cncnc2N[C@@H]2C[C@H](COS(N)(=O)=O)[C@@H](O)C2)cc1Cc1cccc(Cl)c1 [I-179, {(1R,2S,4R)-4-[(5-{[4-(3-chlorobenzyl)-5-cyano-2-thienyl]carbonyl}pyrimidin-4-yl)amino]-2-hydroxycyclopentyl}methyl sulfamate] | 86% | 10 to 100 nM |  | 
2 | NS(=O)(=O)OC[C@H]1C[C@@H](Nc2ncncc2C(=O)c2cc([C@@H]3NCCc4ccc(Cl)cc43)c(Cl)s2)[C@H](O)[C@@H]1O (single isomer, unassigned) [I-249a, [(1R,2R,3S,4R)-4-{[5-({5-chloro-4-[(1R)-7-chloro-1,2,3,4-tetrahydroisoquinolin-1-yl]-2-thienyl}carbonyl)pyrimidin-4-yl]amino}-2,3-dihydroxycyclopentyl]methyl sulfamate or [(1R,2R,3S,4R)-4-{[5-({5-chloro-4-[(1S)-7-chloro-1,2,3,4-tetrahydroisoquinolin-1-yl]-2-thienyl}carbonyl)pyrimidin-4-yl]amino}-2,3-dihydroxycyclopentyl]methyl sulfamate] |  | < 10 nM | 100 | 
3 | NS(=O)(=O)OC[C@H]1C[C@@H](Nc2nc(Cl)ncc2C(=O)c2ccc(-c3ccccc3)o2)[C@H](O)[C@@H]1O [I-236, [(1R,2R,3S,4R)-4-{[2-chloro-5-(5-phenyl-2-furoyl)pyrimidin-4-yl]amino}-2,3-dihydroxycyclopentyl]methyl sulfamate] | 19% | 100 to 1000 nM |  | 
4 | NS(=O)(=O)OC[C@H]1C[C@@H](Nc2ncncc2C(=O)c2cc([C@@H]3OCc4ccc(Cl)cc43)c(Cl)s2)C[C@@H]1O (single isomer, unassigned) [I-310a, [(1R,2S,4R)-4-{[5-({5-chloro-4-[(1R)-6-chloro-1,3-dihydro-2-benzofuran-1-yl]-2-thienyl}carbonyl)pyrimidin-4-yl]amino}-2-hydroxycyclopentyl]methyl sulfamate or [(1R,2S,4R)-4-{[5-({5-chloro-4-[(1S)-6-chloro-1,3-dihydro-2-benzofuran-1-yl]-2-thienyl}carbonyl)pyrimidin-4-yl]amino}-2-hydroxycyclopentyl]methyl sulfamate] |  |  |  | Percent Inhibition [1]: 27%; IC50 [2]: 100 to 1000 nM
5 | Cc1sc(C(=O)c2cncnc2N[C@@H]2C[C@H](COS(N)(=O)=O)[C@@H](O)[C@@H]2F)cc1[C@H]1OCCc2ccc(Cl)cc21 (mixture of isomers) [I-264, [(1R,2R,3R,4R)-4-{[5-({4-[(1S)-7-chloro-3,4-dihydro-1H-isochromen-1-yl]-5-methyl-2-thienyl}carbonyl)pyrimidin-4-yl]amino}-3-fluoro-2-hydroxycyclopentyl]methyl sulfamate and [(1R,2R,3R,4R)-4-{[5-({4-[(1R)-7-chloro-3,4-dihydro-1H-isochromen-1-yl]-5-methyl-2-thienyl}carbonyl)pyrimidin-4-yl]amino}-3-fluoro-2-hydroxycyclopentyl]methyl sulfamate] |  | < 10 nM | 100 | 
6 | Cc1sc(C(=O)c2cncnc2N[C@@H]2C[C@H](COS(N)(=O)=O)[C@@H](O)C2)cc1Cn1cccn1 [I-109, {(1R,2S,4R)-2-Hydroxy-4-[(5-{[5-methyl-4-(1H-pyrazol-1-ylmethyl)-2-thienyl]carbonyl}pyrimidin-4-yl)amino]cyclopentyl)methyl sulfamate] | 96% | < 10 nM |  | 
7 | Cc1sc(C(=O)c2cncnc2N[C@@H]2C[C@H](COS(N)(=O)=O)[C@@H](OC(=O)[C@@H](N)C(C)C)C2)cc1[C@@H]1OCCc2ccc(Cl)cc21 [I-338, (1S,2R,4R)-4-{[5-({4-[(1R)-7-Chloro-3,4-dihydro-1H-isochromen-1-yl]-5-methyl-2-thienyl}carbonyl)pyrimidin-4-yl]amino}-2-[(sulfamoyloxy)methyl]cyclopentyl (2S)-2-amino-3-methylbutanoate] |  |  |  | inhibition at 0.111 µM [1]: 56%; IC50 [2]: 10 to 100 nM
8 | NS(=O)(=O)OC[C@H]1C[C@@H](Nc2ncncc2C(=O)c2cc([C@@H]3NCCc4ccc(Br)cc43)c(Cl)s2)C[C@@H]1O (single isomer, unassigned) [I-251b, [(1R,2S,4R)-4-{[5-({4-[(1R)-7-bromo-1,2,3,4-tetrahydroisoquinolin-1-yl]-5-chloro-2-thienyl}carbonyl)pyrimidin-4-yl]amino}-2-hydroxycyclopentyl]methyl sulfamate or [(1R,2S,4R)-4-{[5-({4-[(1S)-7-bromo-1,2,3,4-tetrahydroisoquinolin-1-yl]-5-chloro-2-thienyl}carbonyl)pyrimidin-4-yl]amino}-2-hydroxycyclopentyl]methyl sulfamate] |  | < 10 nM | 97 | 
9 | N[C@H](c1cccc(Br)c1)c1cc(C(=O)c2cncnc2N[C@@H]2C[C@H](COS(N)(=O)=O)[C@@H](O)C2)sc1Cl (single isomer, unassigned) [I-22a, [(1R,2S,4R)-4-{[5-({4-[(R)-amino(3-bromophenyl)methyl]-5-chloro-2-thienyl}carbonyl)pyrimidin-4-yl]amino}-2-hydroxycyclopentyl]methyl sulfamate or [(1R,2S,4R)-4-{[5-({4-[(S)-amino(3-bromophenyl)methyl]-5-chloro-2-thienyl}carbonyl)pyrimidin-4-yl]amino}-2-hydroxycyclopentyl]methyl sulfamate] |  | 10 to 100 nM | 83 | 
10 | NS(=O)(=O)OC[C@H]1C[C@@H](Nc2ncncc2C(=O)c2cc(Cc3ccccc3)c(Cl)s2)[C@@H](F)[C@@H]1O [I-162, [(1R,2R,3R,4R)-4-({5-[(4-Benzyl-5-chloro-2-thienyl)carbonyl]pyrimidin-4-yl}amino) 3-fluoro-2-hydroxycyclopentyl]methyl sulfamate] | 91% | 10 to 100 nM |  | 
11 | Cc1sc(C(=O)c2cncnc2N[C@@H]2C[C@H](COS(N)(=O)=O)[C@@H](O)[C@H]2O)nc1Cc1cccc(Br)c1 [I-354, {(1R,2R,3S,4R)-4-[(5-{[4-(3-bromobenzyl)-5-methyl-1,3-thiazol-2-yl]carbonyl}pyrimidin-4-yl)amino]-2,3-dihydroxycyclopentyl}methyl sulfamate] |  |  |  | inhibition at 0.111 µM [1]: 100%; IC50 [2]: < 10 nM
12 | NS(=O)(=O)OC[C@H]1C[C@@H](Nc2ncncc2C(=O)c2cc(Cc3cccc(Br)c3)cs2)[C@H](O)[C@@H]1O [I-26, {(1R,2R,3S,4R)-4-[(5-{[4-(3-Bromobenzyl)-2-thienyl]carbonyl}pyrimidin-4-yl)amino]-2,3-dihydroxycyclopentyl}methyl sulfamate] | 100% | < 10 nM |  | 
13 | NS(=O)(=O)OC[C@H]1C[C@@H](Nc2ncncc2C(=O)c2cc(COc3cccc(Cl)c3)cs2)C[C@@H]1O [I-120, [(1R,2S,4R)-4-{[5-({4-[(3-chlorophenoxy)methyl]-2-thienyl}carbonyl)pyrimidin-4-yl]amino}-2-hydroxycyclopentyl]methyl sulfamate] | 97% | < 10 nM |  | 
14 | NS(=O)(=O)OC[C@H]1C[C@@H](Nc2ncncc2C(=O)c2cc([C@@]3(c4ccccc4)CCCO3)cs2)C[C@@H]1O (mixture of isomers) [I-32, [(1R,2S,4R)-2-hydroxy-4-{[5-({4-[(2S)-2-phenyltetrahydrofuran-2-yl]-2-thienyl}carbonyl)pyrimidin-4-yl]amino}cyclopentyl]methyl sulfamate and [(1R,2S,4R)-2-hydroxy-4-{[5-({4-[(2R)-2-phenyltetrahydrofuran-2-yl]-2-thienyl}carbonyl)pyrimidin-4-yl]amino}cyclopentyl]methyl sulfamate] |  | < 10 nM | 98 | 
15 | NS(=O)(=O)OC[C@H]1C[C@@H](Nc2ncncc2C(=O)c2cc([C@@H]3CCc4ccc(Cl)cc43)cs2)C[C@@H]1O (single isomer, unassigned) [I-349a, [(1R,2S,4R)-4-{[5-({4-[(1R)-6-chloro-2,3-dihydro-1H-inden-1-yl]-2-thienyl}carbonyl)pyrimidin-4-yl]amino}-2-hydroxycyclopentyl]methyl sulfamate or [(1R,2S,4R)-4-{[5-({4-[(1S)-6-chloro-2,3-dihydro-1H-inden-1-yl]-2-thienyl}carbonyl)pyrimidin-4-yl]amino}-2-hydroxycyclopentyl]methyl sulfamate] |  |  |  | Percent Inhibition [1]: 42%; IC50 [2]: 100 to 1000 nM
16 | CC(O)(c1cccc(Cl)c1)c1csc(C(=O)c2cncnc2N[C@@H]2C[C@H](COS(N)(=O)=O)[C@@H](O)C2)c1 (single isomer, unassigned) [I-5a, [(1R,2S,4R)-4-{[5-({4-[(1R)-1-(3-chlorophenyl)-1-hydroxyethyl]-2-thienyl}carbonyl)pyrimidin-4-yl]amino}-2-hydroxycyclopentyl]methyl sulfamate or [(1R,2S,4R)-4-{[5-({4-[(1S)-1-(3-chlorophenyl)-1-hydroxyethyl]-2-thienyl}carbonyl)pyrimidin-4-yl]amino}-2-hydroxycyclopentyl]methyl sulfamate] |  | 10 to 100 nM | 86 | 
17 | Cc1sc(C(=O)c2cncnc2N[C@@H]2C[C@H](COS(N)(=O)=O)[C@@H](O)C2)cc1[C@@H]1c2cc(Cl)ccc2CCN1C [I-306, [(1R,2S,4R)-4-[[5-[4-[(1R)-7-Chloro-2-methyl-3,4-dihydro-1H-isoquinolin-1-yl]-5-methyl-thiophene-2-carbonyl]pyrimidin-4-yl]amino]-2-hydroxy-cyclopentyl]methyl sulfamate and 2-carbonyl]pyrimidin-4-yl]amino]-2-hydroxy-cyclopentyl]methyl sulfamate] |  |  |  | Percent Inhibition [1]: 98%; IC50 [2]: < 10 nM
18 | Cc1sc(C(=O)c2cncnc2N[C@@H]2C[C@H](COS(N)(=O)=O)[C@@H](O)C2)cc1Sc1cccc(C(F)(F)F)c1 [I-145, [(1R,2S,4R)-2-hydroxy-4-({5-[(5-methyl-4-{[3-(trifluoromethyl)phenyl]sulfanyl}-2-thienyl)carbonyl]pyrimidin-4-yl}amino)cyclopentyl]methyl sulfamate] | 93% | < 10 nM |  | 
